Like-named read-outs stand apart in the source and are kept apart here.
Key:
[1] = system: MR vs all other steroid hormone receptors; settings: ref Bärfacker et al. 2012, Pitt et al. 2012; cited from earlier work
[2] = molecular target: T1, ligand binding domain of MR (Homo sapiens, UniProt P08235); test: functional cell-based MR transactivation assay in CHO-K1 cells; settings: duplicate
T1 construct: expressed in transfected cells; host or cells: CHO-K1
T1 sequence (P08235 726-964 limits assumed): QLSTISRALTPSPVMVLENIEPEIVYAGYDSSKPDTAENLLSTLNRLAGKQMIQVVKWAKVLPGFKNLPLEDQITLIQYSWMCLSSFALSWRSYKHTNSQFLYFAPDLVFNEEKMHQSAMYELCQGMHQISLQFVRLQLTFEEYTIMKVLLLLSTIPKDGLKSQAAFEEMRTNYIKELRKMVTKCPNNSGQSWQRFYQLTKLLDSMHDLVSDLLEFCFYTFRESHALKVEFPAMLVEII

[3] = system: mouse model of pressure overload-induced HF; design: method as in Grune et al. 2016; settings: ref Grune et al. 2016; cited from earlier work
MR = system: MR; design: method as in Amazit et al. 2015; settings: ref Amazit et al. 2015; cited from earlier work
[4] = quantitative whole-body autoradiography, [14C]-labeled, healthy rats; ref Kolkhof et al. 2014; cited from earlier work
[5] = cited from earlier work; for absolute change in nocturnal BP: day 90, patients with nocturnal hypertension, ref Ruilope et al. 2016
DOCA/salt rats = system: DOCA/salt rats; design: method as in Kolkhof et al. 2014; settings: ref Kolkhof et al. 2014, cited from earlier work
[6] = design: method as in Filippatos et al. 2016; settings: 1066 HFrEF patients; ref Filippatos et al. 2016; cited from earlier work
S810L MR mutant = system: S810L MR mutant; design: method as in Geller et al. 2000, Amazit et al. 2015; settings: ref Geller et al. 2000, Amazit et al. 2015; cited from earlier work
[7] = system: SRC-1 recruitment at the promoter of the SCNN1A gene; design: method as in Amazit et al. 2015; settings: ref Amazit et al. 2015; cited from earlier work
[8] = design: method as in Pitt et al. 2013; settings: ref Pitt et al. 2013, cited from earlier work

CCOc1ncc(C)c2c1[C@H](c1ccc(C#N)cc1OC)C(C(N)=O)=C(C)N2 [finerenone]
selectivity toward MR [1]: at least 500 fold
IC50 ([2]; agonist DOCA 10 nM, read-out: IC50 vs DOCA as agonist): 46 nM
IC50 ([2]; agonist corticosterone 1 nM, read-out: IC50 vs corticosterone as agonist): 24 nM
IC50 ([2]; agonist cortisol 10 nM, read-out: IC50 vs cortisol as agonist): 5 nM
prevention of myocardial hypertrophy vs eplerenone [3]: more pronounced prevention of myocardial hypertrophy
delay of aldosterone-induced nuclear translocation of MR (MR): more efficiently than spironolactone
distribution into cardiac and kidney tissues [4]: balanced distribution
absolute change in nocturnal BP ([5]; 10 mg dose group): −9.5 mmHg
absolute change in nocturnal BP ([5]; 20 mg dose group): −12.0 mmHg
albuminuria ([5]; 7.5, 10, 15 and 20 mg, 90 days, on top of SoC, ref Bakris et al. 2015): dose-dependent, significant reductions
systolic blood pressure vs 100 mg/kg eplerenone (DOCA/salt rats; 10 mg/kg finerenone, head-to-head): significantly lower
reduction of cardiac hypertrophy, pro-BNP and proteinuria vs eplerenone (DOCA/salt rats; equinatriuretic doses): more efficiently than eplerenone
outcome including death and CV hospitalization vs eplerenone [6]: nominally improved outcome
effect on S810L MR mutant (S810L MR mutant): block
mode of action on SRC-1 recruitment [7]: inverse agonist
decrease of BNP, NT-pro-BNP and urinary albumin vs spironolactone ([8]; 5 and 10 mg OD vs spironolactone 25 or 50 mg/day): at least as effective as spironolactone
incidence of hyperkalemia vs spironolactone ([8]; 5 and 10 mg OD): significantly lower incidence
increases in serum potassium vs spironolactone ([8]; 5 and 10 mg OD): significantly lower increases
